Where a name gives a salt, the structure may show the parent alone.
Assays:
serotonin transporter = target: T1, serotonin transporter (Rattus norvegicus, UniProt P31652); assay: 3H-paroxetine binding to the serotonin transporter, rat frontal cortical membranes; details: values printed in parentheses, 3H-paroxetine 0.1 nM, read-out: rb-5-HH-T, (IC50)
T1 construct: frontal cortical membranes prepared from male S.D. rats; from tissue; host or cells: rat frontal cortex membranes (male Sprague-Dawley)
Description: A protocol similar to that used by Cheetham et al. (Neuropharmacol. 32:737, 1993) was used to determine the affinity of compounds for the serotonin transporter. Briefly, frontal cortical membranes prepared from male S.D. rats were incubated with ^3H-paroxetine (0.1 nM) for 60 min at 25° C. All tubes also contained either vehicle, test compound (one to eight concentrations), or a saturating concentration of fluoxetine (10 μM) to define […]. All reactions are terminated by the addition of ice cold Tris buffer followed by rapid filtration using a Tom Tech filtration device to separate bound from free ^3H-paroxetine. Bound radioactivity was quantitated using a Wallac 1205 Beta Plate® counter. Nonlinear regression analysis was used to determine IC50 values which were converted to Ki values using the method of Cheng and Prusoff (Biochem. Pharmacol. 22: 3099, 1973); […].

Human 5-HT1A Receptor [1] = target: T2, Human 5-HT1A Receptor (Homo sapiens, UniProt P08908); assay: cAMP RIA in human 5-HT1A receptor cell line; format: cell-based; details: superscript b; reversal of agonist activity, CHO cells; read-out: c-AMP, (IC50)^b
T2 construct: expressed in transfected cells; host or cells: CHO cells
T2 sequence (P08908 1-422): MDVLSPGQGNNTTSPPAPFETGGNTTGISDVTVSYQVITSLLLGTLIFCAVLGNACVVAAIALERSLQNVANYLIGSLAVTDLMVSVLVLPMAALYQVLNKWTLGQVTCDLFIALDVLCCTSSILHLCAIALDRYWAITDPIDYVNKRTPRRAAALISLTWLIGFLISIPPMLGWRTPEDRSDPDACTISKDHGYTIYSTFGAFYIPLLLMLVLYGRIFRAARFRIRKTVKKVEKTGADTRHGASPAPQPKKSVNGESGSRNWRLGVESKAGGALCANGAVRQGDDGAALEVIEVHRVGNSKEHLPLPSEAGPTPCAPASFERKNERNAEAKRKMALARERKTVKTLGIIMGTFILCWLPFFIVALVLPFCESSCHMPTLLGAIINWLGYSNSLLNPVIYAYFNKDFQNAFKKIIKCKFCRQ
Description: Stably transfected CHO cells were grown in DMEM containing 10% heat inactivated FBS and non-essential amino acids. The cells were plated at a density of 10^6 cells per well in a 96 well plate and incubated for 2 days in a CO2 incubator. On the second day, the media was replaced with 0.1 ml Krebs and incubated 15 minutes at 37° C. The media was then replaced with Krebs buffer containing 500 uM IBMX and incubated 5 minutes at 37° C. Wells were treated with forskolin (1 uM final conc) followed immediately by test compound (0.1 and 1 uM for initial screen) and incubated for an additional 10 min at 37° C. Reaction was terminated by removal of the media and addition of 0.5 ml ice cold assay buffer (supplied in RIA kit). Plates are stored at −20° C. prior to assessment of cAMP formation by RIA. Compounds shown to have no agonist activities were further analyzed for ability to reverse agonist activity. In separate experiments, 6 concentrations of antagonist were preincubated for 20 min prior to the addition of agonist and forskolin. Cells were harvested as described. The cAMP kit is supplied by Amersham and the RIA is performed as per kit instructions. In the initial screen, percent inhibition of forskolin stimulated cAMP was measured. In the secondary screen, IC50 of reversal of agonist activity was measured. Calculations of IC50 were performed by GraphPad Prism. Serotonin, BMY 7378, Buspirone, and 8-OH-DPAT were used as reference compounds.

Human 5-HT1A Receptor [2] = target: T2, Human 5-HT1A Receptor; assay: 8-OH-DPAT binding, human 5-HT1A receptor cell line; details: stably transfected CHO cells, 8-OH-DPAT ligand 1.5 nM; read-out: h5-HT1A Affinity, Ki
Description: Stably transfected CHO cells were grown in DMEM containing 10% heat inactivated FBS and non-essential amino acids. Cells were scraped off the plate, transferred to centrifuge tubes, and washed twice by centrifugation (2000 rpm for 10 min., 4° C.) in buffer (50 mM Tris, pH 7.5). The resulting pellets were aliquoted and placed at −80° C. On day of assay, the cells were thawed on ice, and resuspended in buffer. The binding assay was performed in a 96 well microtiter plate in a total volume of […]. Non-specific binding was determined in the presence of […] 5HT; final ligand concentration was 1.5 nM. Following a 30 min. incubation at room temperature, the reaction was terminated by the addition of ice cold buffer and rapid filtration through a GF/B filter presoaked for 30 min. in 0.5% PEI. Compounds were initially tested in a single point assay to determine percent inhibition at […]. Subsequently, Ki values were determined for compounds defined to be active. Percent inhibition Ki was determined by RFComp (Lundon Software), with Serotonin 8-OH-DPAT as the reference compounds.

T1 sequence (P31652 whole entry): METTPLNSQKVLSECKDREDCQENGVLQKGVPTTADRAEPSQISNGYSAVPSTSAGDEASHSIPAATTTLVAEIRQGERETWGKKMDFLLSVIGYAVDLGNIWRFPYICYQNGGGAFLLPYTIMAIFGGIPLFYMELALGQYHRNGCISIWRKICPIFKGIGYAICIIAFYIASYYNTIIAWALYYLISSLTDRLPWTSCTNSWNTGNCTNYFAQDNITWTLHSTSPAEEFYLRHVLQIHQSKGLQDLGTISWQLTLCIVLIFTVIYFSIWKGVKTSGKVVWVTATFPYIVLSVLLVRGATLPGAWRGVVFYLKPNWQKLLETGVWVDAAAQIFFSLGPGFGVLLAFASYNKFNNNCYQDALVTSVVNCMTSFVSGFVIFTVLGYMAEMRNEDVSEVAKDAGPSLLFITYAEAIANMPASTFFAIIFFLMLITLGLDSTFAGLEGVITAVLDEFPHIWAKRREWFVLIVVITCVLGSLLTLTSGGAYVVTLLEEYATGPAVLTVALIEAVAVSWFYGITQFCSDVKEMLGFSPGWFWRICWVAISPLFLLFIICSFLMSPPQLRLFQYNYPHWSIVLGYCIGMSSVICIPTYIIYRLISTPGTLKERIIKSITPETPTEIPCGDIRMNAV

Compound	melting point	IC50 (serotonin transporter)	IC50 (Human 5-HT1A Receptor [1])	Ki (Human 5-HT1A Receptor [2])
Cc1ccc2c3c(ccc2n1)OCC(CN(CC1CCc2c(c4cc(F)ccc4n2C)C1)C(C)C)O3 (as salt: hydrochloride) (hydrate or solvate) [Example 65, N-[(6-Fluoro-9-methyl-2,3,4,9-tetrahydro-1H-carbazol-3-yl)methyl]-N-([(2S)-8-methyl-2,3-dihydro[1,4]dioxino[2,3-f]quinolin-2-yl]methylpropan-2-aminemonohydrochloride monohydrate]	201 to 222 °C	–	–	–
Cc1ccc2c3c(ccc2n1)OC[C@H](CNC[C@@H]1CCc2[nH]c4ccc(F)cc4c2C1)O3 (as salt: hydrochloride) [Example 5, N-{[(3R)-6-fluoro-2,3,4,9-tetrahydro-1H-carbazol-3-yl]methyl}-N-{[(2S)-8-methyl-2,3-dihydro[1,4]dioxino[2,3-f]quinolin-2-yl]methyl}amine]	229 to 236 °C	–	–	–
Cc1ccc2c3c(ccc2n1)OC[C@H](CNC[C@H]1CCc2c(c4cc(F)ccc4n2C)C1)O3 (as salt: hydrochloride) [Example 7]	220 to 226 °C	–	–	–
Cc1ccc2c3c(ccc2n1)OC[C@H](CNC[C@@H]1CCc2c(c4cc(F)ccc4n2C)C1)O3 (as salt: hydrochloride) [Example 8, N-{[(3R)-6-fluoro-9-methyl-2,3,4,9-tetrahydro-1H-carbazol-3-yl]methyl}-N-{[(2S)-8-methyl-2,3-dihydro[1,4]dioxino[2,3-f]quinolin-2-yl]methyl}amine]	242 to 260 °C	–	–	–
CCN(CC1CCc2[nH]c3ccc(F)cc3c2C1)C[C@H]1COc2ccc3nc(C)ccc3c2O1.Cl.Cl.O.O (stereo partly drawn) (hydrate or solvate) [Example 50, N-[(6-Fluoro-2,3,4,9-tetrahydro-1H-carbazol-3-yl)methyl]-N-{[(2S)-8-methyl-2,3-dihydro[1,4]dioxino[2,3-f]quinolin-2-yl]methyl}ethanamine dihydrochloride dihydrate]	234 to 249 °C	–	–	–
CCCN(CC1CCc2[nH]c3ccc(F)cc3c2C1)C[C@H]1COc2ccc3nc(C)ccc3c2O1.Cl.Cl.O.O (stereo partly drawn) (hydrate or solvate) [Example 51, N-[(6-Fluoro-2,3,4,9-tetrahydro-1H-carbazol-3-yl)methyl]-N-{[(2S)-8-methyl-2,3-dihydro[1,4]dioxino[2,3-f]quinolin-2-yl]methyl}propan-1-amine dihydrochloride dihydrate]	187 to 201 °C	–	–	–
Cc1ccc2c3c(ccc2n1)OC[C@H](CN(CC1CC1)CC1CCc2[nH]c4ccc(F)cc4c2C1)O3.Cl.Cl.O.O (stereo partly drawn) (hydrate or solvate) [Example 52, (Cyclopropylmethyl)[(6-fluoro-2,3,4,9-tetrahydro-1H-carbazol-3-yl)methyl]{[(2S)-8-methyl-2,3-dihydro[1,4]dioxino[2,3-f]quinolin-2-yl]methyl}amine dihydrochloride dihydrate]	215 to 230 °C	–	–	–
Cc1ccc2c3c(ccc2n1)OC[C@H](CN(CC1CCc2[nH]c4ccc(F)cc4c2C1)C1CCC1)O3.Cl.Cl.O.O (stereo partly drawn) (hydrate or solvate) [Example 53, N-[(6-Fluoro-2,3,4,9-tetrahydro-1H-carbazol-3-yl)methyl]-N-{[(2S)-8-methyl-2,3-dihydro[1,4]dioxino[2,3-f]quinolin-2-yl]methyl}cyclobutanamine dihydrochloride dihydrate]	220 to 235 °C	–	–	–
CCCN(C[C@@H]1CCc2[nH]c3ccc(F)cc3c2C1)C[C@H]1COc2ccc3nc(C)ccc3c2O1.Cl.Cl.O.O (hydrate or solvate) [Example 54, N-{[(3R)-6-Fluoro-2,3,4,9-tetrahydro-1H-carbazol-3-yl]methyl}-N-{[(2S)-8-methyl-2,3-dihydro[1,4]dioxino[2,3-f]quinolin-2-yl]methyl}propan-1-amine dihydrochloride dihydrate]	225 to 240 °C	–	–	–
Cc1ccc2c3c(ccc2n1)OC[C@H](CN(CC1CC1)C[C@@H]1CCc2[nH]c4ccc(F)cc4c2C1)O3.Cl.Cl.O.O (hydrate or solvate) [Example 55, (Cyclopropylmethyl){[(3R)-6-fluoro-2,3,4,9-tetrahydro-1H-carbazol-3-yl]methyl}{[(2S)-8-methyl-2,3-dihydro[1,4]dioxino[2,3-f]quinolin-2-yl]methyl}amine dihydrochloride dihydrate]	210 to 225 °C	–	–	–
Cc1ccc2c3c(ccc2n1)OC[C@H](CN(C[C@@H]1CCc2[nH]c4ccc(F)cc4c2C1)C1CCC1)O3.Cl.Cl.O.O (hydrate or solvate) [Example 56, N-{[(3R)-6-Fluoro-2,3,4,9-tetrahydro-1H-carbazol-3-yl]methyl}-N-{[(2S)-8-methyl-2,3-dihydro[1,4]dioxino[2,3-f]quinolin-2-yl]methyl}cyclobutanamine dihydrochloride dihydrate]	215 to 230 °C	–	–	–
Cc1ccc2c3c(ccc2n1)OC[C@H](CN(C[C@@H]1CCc2[nH]c4ccc(F)cc4c2C1)C(C)C)O3.Cl.O (hydrate or solvate) [Example 57, N-{[(3R)-6-Fluoro-2,3,4,9-tetrahydro-1H-carbazol-3-yl]methyl}-N-{[(2S)-8-methyl-2,3-dihydro[1,4]dioxino[2,3-f]quinolin-2-yl]methyl}propan-2-amine monohydrochloride monohydrate]	230 to 243 °C	–	–	–
Cc1ccc2c3c(ccc2n1)OC[C@H](CNC[C@H]1CCc2[nH]c4ccc(F)cc4c2C1)O3 [Example 3, S,S-(6-Fluoro-2,3,4,9-tetrahydro-1H-carbazol-3-ylmethyl)-(8-methyl-2,3-dihydro-[1,4]dioxino[2,3-f]quinolin-2-ylmethyl)-amine]	–	6.61 nM	79 nM	1.26 nM
Cc1ccc2c3c(ccc2n1)OC[C@H](CNC[C@@H]1CCc2[nH]c4ccc(F)cc4c2C1)O3 [Example 5, N-{[(3R)-6-fluoro-2,3,4,9-tetrahydro-1H-carbazol-3-yl]methyl}-N-{[(2S)-8-methyl-2,3-dihydro[1,4]dioxino[2,3-f]quinolin-2-yl]methyl}amine]	–	2.56 nM	144 nM	2.03 nM
Cc1ccc2c3c(ccc2n1)OC[C@H](CNC[C@H]1CCc2c(c4cc(F)ccc4n2C)C1)O3 [Example 7]	–	7.74 nM	78.5 nM	0.34 nM
Cc1ccc2c3c(ccc2n1)OC[C@H](CNC[C@@H]1CCc2c(c4cc(F)ccc4n2C)C1)O3 [Example 8, N-{[(3R)-6-fluoro-9-methyl-2,3,4,9-tetrahydro-1H-carbazol-3-yl]methyl}-N-{[(2S)-8-methyl-2,3-dihydro[1,4]dioxino[2,3-f]quinolin-2-yl]methyl}amine]	–	3.1 nM	39.4 nM	2.5 nM

— patent US7297704B2, “Cycloalkyfused indole, benzothiophene, benzofuran and idene derivatives” (Wyeth, priority 2005, dated 2007)
